Measured values reported in the NIST ThermoML archive (doi:10.1021/je0495942).
Several values for one entry are separate records, joined by “and”; a condition that tells them apart may be missing. Equal values may be shown once. Numbers after ± are expanded uncertainties.

Experiment: activity coefficient (dimensionless); of the first substance listed, at infinite dilution; xn = mol fraction of the nth substance listed
Conditions: 101.33 kPa, Liquid, Chromatography, x1 = 0

activity coefficient (297.85 K)	activity coefficient (298.15 K)	activity coefficient (298.01 K)	activity coefficient (298.03 K)	SMILES	other results
		175 and 173 and 171	170 and 173	CSC [2-thiapropane] + O	activity coefficient (298.02 K): 184 and 185; activity coefficient (298.07 K): 178 ± 12
	4.14 ± 0.19			CC=O [ethanal] + O	activity coefficient (298.13 K): 4.13 [middle of 4 runs]
	3.77 ± 0.17			CCO [ethanol] + O	
129 ± 6	148 ± 7			CCCC(C)=O [pentan-2-one] + O	
		13.4 ± 0.6	13.3 ± 0.6	CCCO [propan-1-ol] + O	activity coefficient (298.04 K): 13.3 ± 0.6; activity coefficient (298.1 K): 13.4 and 13.3

The remaining lines, values behind:

SMILES	activity coefficient (297.85 K)	activity coefficient (298.15 K)	activity coefficient (298.01 K)	activity coefficient (298.03 K)	other results
CC(=O)C(C)=O [2,3-butanedione] + O					activity coefficient (298.1 K): 13.3 and 13.2; activity coefficient (298.17 K): 13.2 and 13.1
CCCCC(C)=O [2-hexanone] + O	319 ± 14	265 ± 12			
CC(C)=O [acetone] + O			7.62 and 7.68	7.64 and 7.7	activity coefficient (298.04 K): 7.68 and 7.74; activity coefficient (298.17 K): 7.7 ± 0.34
CCC(C)=O [butanone] + O	25.8 ± 1.1	26.1 ± 1.2			
